ChEMBL document CHEMBL1144609, “N-Hydroxythiosemicarbazones: synthesis and in vitro antitubercular activity” (Bioorg Med Chem Lett, 2007)
≈ marks a conversion by molar mass, not a printed value.

Experiments:
[1] = test system: Mycobacterium tuberculosis; test: Antimycobacterial activity against Mycobacterium tuberculosis H37Rv by agar dilution method; format: functional
Vero = test: Cytotoxicity against Vero cells after 72 hrs by MTT assay; format: cell-based; settings: Chlorocebus sabaeus
[2] = Selectivity index, ratio of IC50 for Vero cells to MIC for Mycobacterium tuberculosis H37Rv; format: functional

ONC(=S)N/N=C/c1ccc(Cl)cc1
MIC [1]: 13 µM (≈ 2.99 µg/mL)

COc1cc(/C=N/NC(=S)NO)ccc1O
MIC [1]: 27.2 µM (≈ 6.57 µg/mL)

O=C1Nc2ccc(F)cc2/C1=N/NC(=S)NO
MIC [1]: 24.6 µM (≈ 6.25 µg/mL)

ONC(=S)N/N=C/c1ccccc1O
MIC [1]: 29.6 µM (≈ 6.25 µg/mL)

ONC(=S)N/N=C/c1ccccc1
MIC [1]: 64 µM (≈ 12.5 µg/mL)

ONC(=S)N/N=C/c1ccc(O)cc1
MIC [1]: 29.6 µM (≈ 6.25 µg/mL)

O=[N+]([O-])c1ccccc1/C=N/NC(=S)NO
MIC [1]: 6.49 µM (≈ 1.56 µg/mL) | IC50 (Vero): > 260 µM

CN(C)c1ccc(/C=N/NC(=S)NO)cc1
MIC [1]: 52.5 µM (≈ 12.5 µg/mL)

COc1ccc(/C=N/NC(=S)NO)cc1
MIC [1]: 14.9 µM (≈ 3.37 µg/mL)

Cc1ccc(/C=N/NC(=S)NO)cc1
MIC [1]: 13 µM (≈ 2.71 µg/mL)

C/C(=N\NC(=S)NO)c1ccccc1
MIC [1]: 14.9 µM (≈ 3.13 µg/mL)

C/C(=N\NC(=S)NO)c1ccccc1O
MIC [1]: 13.9 µM (≈ 3.13 µg/mL)

C/C(=N\NC(=S)NO)c1ccc([N+](=O)[O-])cc1
MIC [1]: 0.78 µM (≈ 0.198 µg/mL) | IC50 (Vero): > 246 µM

O=C1Nc2ccccc2/C1=N/NC(=S)NO
MIC [1]: 64 µM (≈ 15.1 µg/mL)

O=[N+]([O-])c1ccc(/C=N/NC(=S)NO)cc1
MIC [1]: 6.49 µM (≈ 1.56 µg/mL) | IC50 (Vero): > 260 µM

C/C(=N\NC(=S)NO)c1ccc(Cl)cc1
MIC [1]: 3.2 µM (≈ 0.78 µg/mL) | IC50 (Vero): > 256 µM

C/C(=N\NC(=S)NO)c1ccc(C)cc1
MIC [1]: 6.98 µM (≈ 1.56 µg/mL) | IC50 (Vero): > 280 µM

CO[C@H]1/C=C/O[C@@]2(C)Oc3c(C)c(O)c4c(O)c(c(/C=N/N5CCN(C)CC5)c(O)c4c3C2=O)NC(=O)/C(C)=C\C=C\[C@H](C)[C@H](O)[C@@H](C)[C@@H](O)[C@@H](C)[C@H](OC(C)=O)[C@@H]1C [RIFAMPIN]
MIC [1]: 0.24 µM (≈ 0.198 µg/mL) | IC50 (Vero): > 75.9 µM

NNC(=O)c1ccncc1 [ISONIAZID]
MIC [1]: 0.72 µM (≈ 0.0987 µg/mL) | IC50 (Vero): > 456 µM

ONC(=S)N/N=C(\c1ccccc1)c1ccc(Br)cc1
MIC [1]: 0.28 µM (≈ 0.0981 µg/mL) | IC50 (Vero): > 178 µM | Selectivity index [2]: >625

CC[C@@H](CO)NCCN[C@@H](CC)CO [ETHAMBUTOL]
MIC [1]: 15.3 µM (≈ 3.13 µg/mL) | IC50 (Vero): > 306 µM
